{"source": "patent US20260199368A1", "about": "“[…] SYSTEM CONTAINING REMIMAZOLAM” (LTS LOHMANN THERAPIE-SYSTEME AG, priority 2022, published 2026)", "origin": "cited, not measured here", "details": "intranasal administration; cited from earlier work"}
{"smiles": "COC(=O)CC[C@@H]1N=C(c2ccccn2)c2cc(Br)ccc2-n2c(C)cnc21", "note": "[remimazolam, methyl 3-{(4S)-8-bromo-1-methyl-6-(pyridin-2-yl)-4/-/-imidazo[1,2-a][1,4]benzodiazepin-4-yl}propanoate]", "values": [{"measurement": "bioavailability", "result": "about 50%"}]}
